The source of these data is US10314883B2, “Compositions and methods for regulating blood pressure” (University of Virginia Patent Foundation, priority 2015, dated 2019).

One experiment concerns abdominal aortic rings. The experiment is described as follows: Wire myography of abdominal aortic rings. Conditions: for EC50: Mus musculus, read-out: EC50 of phenylephrine, aortic ring contraction. Format: cell-based, mouse.
Experiment [1] concerns thoracodorsal arteries (TDA). As to the kind of experiment: tissue or blood. As to conditions: Mus musculus.
Experiment [2] deals with thoracodorsal arteries (TDA). As to the kind of experiment: Pressure myography of TDAs electroporated with Panx1 WT or YLK>AAA plasmid. Format: cell-based, mouse. As to conditions: for EC50: Mus musculus, read-out: EC50 of phenylephrine-induced constriction. As for the experimental part:
(§1) The contractile responses of pressurized thoracodorsal arteries (TDA) were measured as previously described. Briefly, TDA were isolated and placed in cold Krebs-HEPES until cannulation in a pressure arteriograph (Danish MyoTechnology). After a 30 minute equilibration period, cumulative concentrations of contractile agonists were applied to the TDA pressurized at 80 mmHg, and the vessel was visualized with an Olympus IX-71 microscope attached to a Hamamatsu EM-CCD camera coupled to Slidebook imaging software. […] Lastly, maximal diameter was measured at the end of each experiment in calcium-free Krebs-HEPES supplemented with EGTA (1 mmol/L) and sodium nitroprusside (10 μmol/L). In cases where the vessels were not constricting to the contractile agonist, their viability was assessed by applying 40 mM KCl and only TDA reaching 30% of the maximal diameter were considered for analysis. The contractile responses, as well as the basal tone, are expressed as a percentage of the maximal diameter.
Vessel transfection was performed as previously described by us. Briefly, after isolation, TDA were placed in cold, sterile RPMI supplemented with penicillin […] (Gibco), CaCl2 (2 mmol/L) and 1% BSA. Vessels were transferred to a cuvette containing 100 μL of Nucleofector solution (Lonza) containing 5 μg of plasmid, and subjected to electroporation. Arteries were then placed in supplemented RPMI media in an incubator for 14 to 18 hours until cannulation in the pressure arteriograph as described above.
We further tested the importance of the YLK sequence within the intracellular loop of Panx1 on phenylephrine-induced vasoconstriction using rescue experiments with intact arteries from mice lacking endogenous Panx1. We reintroduced Panx1 into the SMCs of TDAs from Cre^+/Panx1^F1 mice that had received tamoxifen by selectively transfecting these cells with a plasmid encoding Panx1^WT.

For experiment [3], the system named is thoracodorsal arteries (TDA).
Experiment [4] deals with thoracodorsal arteries (TDA). The experiment is described as follows: Pressure myography: agonist-induced constriction of pressurized TDAs from C57Bl/6 mice with pannexin inhibitors or Panx1 mimetic peptides. Format: cell-based, mouse. Conditions: for effect on phenylephrine-induced constriction of pressurized TDAs: TAT-linked peptides. As for the experimental part: as §1
Using pressure arteriography on TDA dissected from C57Bl/6 mice (as described; and aortic ring contraction, as described), we measured the effect of pannexin inhibitors, probenecid and 10Panx1, on the contractile response upon stimulation with different vasoconstrictors: phenylephrine (FIG. 1A), noradrenaline (also called norepinephrine) (FIG. 1B), serotonin (also known as 5-HT) (FIG. 1C) and endothelin-1 (FIG. 1D). […] In contrast, ^10Panx1 and probenecid had no effect on contraction of TDA measured in response to cumulative concentrations of serotonin or endothelin-1 (FIGS. 1C-D; Table 1).
To determine the region of Panx1 necessary for channel activation in response to α1AR stimulation, we produced short peptides derived from the intracellular regions of the Panx1 channel. We generated two peptides mimicking unique mouse Panx1 (mPanx1) sequences in the first intracellular loop (IL1 and IL2) and two peptides mimicking unique mPanx1 sequences in the C-terminal region, one in second intracellular loop (CT1) and one in the C-terminal tail (CT2) (FIG. 4A scissors indicate caspase 3 cleavage site; Table 3). All peptides also contained a TAT sequence to facilitate entry into cells and we verified the intracellular localization of each peptide by immunofluorescence detection of the TAT sequence in TDAs pre-incubated with each peptide (FIG. 7A). We tested the effect of each peptide on phenylephrine-induced contractile responses in pressurized TDAs from C57Bl/6 mice (FIGS. 4B-E). […] Note that these differences in effects of phenylephrine were similar in magnitude to those observed in arteries from SMC-specific Panx1-knockout mice and littermate controls (FIG. 2C, Table 2).

A further experiment concerns resistance arterioles. As to the kind of experiment: Diameter of resistance arterioles isolated from adipose tissue of hypertensive subjects. Format: cell-based, human. Conditions: arterioles from treatment resistant hypertension patients. The text has this:
The resistance arterioles were isolated from adipose tissue. Treatment resistant hypertension: >3 continue to have high blood pressure.

The test system of another experiment is mice. As to the kind of experiment: Cecal ligation puncture (CLP) model of sepsis. Format: in vivo, mouse. The text has this: Knockout of Panx1 specifically from the endothelium or treatment of mice with PanX both reversed the decreased in heat rate typically observed after induction of sepsis. […] Knockout of Panx1 specifically from the endothelium or treatment of mice with PanX both reversed the increased level of blood urea nitrogen, which is due in large part to increased vein permeability in sepsis. The three groups in each graph are Control (left bar), Panx1 Endothelial Cell Knockout Mouse (middle bar), and Control+IL2 (PanX) Peptide treatment.

Setting [5] is: aortic rings from Cre^+/Panx1^FL with tamoxifen.
Where [6] appears, read: aortic rings from Cre^+/Panx1^FL, peanut oil.
[7] abbreviates: TDAs from Cre^+/Panx1^FL with tamoxifen + Panx1^WT.
Where [8] appears, read: TDAs from Cre^+/Panx1^FL with tamoxifen + Panx1^YLK>AAA.
Where [9] appears, read: TDAs from Cre^+/Panx1^FL with tamoxifen, electroporated without plasmid.
The mark [10] stands for this setting: TDAs from Cre^+/Panx1^FL, no tamoxifen, electroporated without plasmid.
The mark [11] stands for this setting: in presence of the named peptide.

Like-named read-outs stand apart in the source and are kept apart here.

As for `CNC[C@H](O)c1cccc(O)c1` [Phenylephrine, phenylephrine], the EC50 in the experiment with abdominal aortic rings (setting [5]) is 3.2 ± 0.32 µM; with abdominal aortic rings (setting [6]), 3.39 ± 0.38 µM; in experiment [1] (read-out: EC50 of agonist for TDA constriction, TDAs from Cre^+/Panx1^FL mice, tamoxifen-injected (SMC Panx1 knockout)), 7.84 ± 5.6 µM; in experiment [1] (read-out: EC50 of agonist for TDA constriction, TDAs from Cre^+/Panx1^WT mice, tamoxifen-injected), 1.79 ± 1.13 µM; in experiment [1] (read-out: EC50 of agonist for TDA constriction, TDAs from Cre^−/Panx1^FL mice, tamoxifen-injected), 0.64 ± 0.37 µM; in experiment [1] (read-out: EC50 of agonist for TDA constriction, TDAs from Cre^−/Panx1^WT mice, tamoxifen-injected), 0.66 ± 0.13 µM. The EC50 turned out to be 0.45 ± 0.33 µM in experiment [2] (setting [7]), 0.63 ± 0.53 µM in experiment [2] (setting [8]), 1.13 ± 0.77 µM in experiment [2] (setting [9]) and 0.64 ± 0.23 µM in experiment [2] (setting [10]). Besides, the “EMAX of phenylephrine, aortic ring contraction” value in the experiment with abdominal aortic rings (setting [5]) was 343.4 ± 69.4 percentage of constriction to KCl; in the experiment with abdominal aortic rings (setting [6]), 368.8 ± 78.7 percentage of constriction to KCl. For the same compound, the “EMAX of phenylephrine-induced constriction” value in experiment [2] (setting [7]) is listed as 34.2 ± 6.15 percentage of maximal diameter; in experiment [2] (setting [8]) it was 56.9 ± 5.84 percentage of maximal diameter; in experiment [2] (setting [9]) it was 57.5 ± 9.20 percentage of maximal diameter; in experiment [2] (setting [10]), 32.9 ± 4.85 percentage of maximal diameter. Besides, the “EMAX of agonist for TDA constriction” value is 69.1 ± 3.06 percentage of maximal diameter in experiment [3] (TDAs from Cre^+/Panx1^FL mice, tamoxifen-injected (SMC Panx1 knockout)); 69.1±3.06 percentage of maximal diameter in experiment [3] (TDAs from Cre^+/Panx1^FL mice, tamoxifen-injected (SMC Panx1 knockout), listed as phenylephrine); 53.5 ± 4.91 percentage of maximal diameter in experiment [3] (TDAs from Cre^+/Panx1^WT mice, tamoxifen-injected); 46.3 ± 5.94 percentage of maximal diameter in experiment [3] (TDAs from Cre^−/Panx1^FL mice, tamoxifen-injected); 51.8 ± 2.66 percentage of maximal diameter in experiment [3] (TDAs from Cre^−/Panx1^WT mice, tamoxifen-injected); “approximately 50 % of maximal diameter” in experiment [3] (TDAs isolated from the three control genotypes).
On to “scrambled intracellular loop 2 IYLYVEQKPY (SEQ ID NO: 7) linked with a TAT sequence [Scrambled IL2]”, for which the “effect on phenylephrine-induced constriction of pressurized TDAs” value in experiment [4] (C57Bl/6 TDAs) is listed as “no significant effect”. In experiment [4] (setting [11]), the “EMAX of phenylephrine for TDA constriction” value is recorded as 47.5 ± 2.17 percentage of maximal diameter.
With KYPIVEQYLKYGRKKQRRR [IL2], in experiment [4] (C57Bl/6 TDAs), the “effect on noradrenaline-induced constriction” value is “inhibited” and the “effect on phenylephrine-induced constriction of pressurized TDAs” value is given as “significantly decreased”. In experiment [4] (setting [11]), the “EMAX of endothelin-1 for TDA constriction” value is given as 41.9 ± 3.73 percentage of maximal diameter, the “EMAX of noradrenaline for TDA constriction” value is reported as 53.4 ± 7.00 percentage of maximal diameter, the “EMAX of phenylephrine for TDA constriction” value was 68.6 ± 5.11 percentage of maximal diameter and the “EMAX of serotonin for TDA constriction” value is listed as 36.7 ± 3.52 percentage of maximal diameter. In addition, the “effect on hyperconstriction of resistance arterioles” value in the experiment with resistance arterioles is “significantly reduces hyperconstriction”. Besides, in the experiment on mice, the “effect on decreased heart rate after induction of sepsis” value is listed as “reversed” and the “effect on increased blood urea nitrogen after induction of sepsis” value was “reversed”.
